Biological target: T1, human serum albumin (HSA) (Homo sapiens, UniProt P02768)
T1 construct: gene ALB; commercial powder (Sigma Aldrich), mature plasma protein
Experiment: intrinsic fluorescence quenching, ex […] nm
Type: binding
Conditions: double-log; 297 K, pH 7.4 phosphate, no site marker

T1 sequence (P02768 25-609): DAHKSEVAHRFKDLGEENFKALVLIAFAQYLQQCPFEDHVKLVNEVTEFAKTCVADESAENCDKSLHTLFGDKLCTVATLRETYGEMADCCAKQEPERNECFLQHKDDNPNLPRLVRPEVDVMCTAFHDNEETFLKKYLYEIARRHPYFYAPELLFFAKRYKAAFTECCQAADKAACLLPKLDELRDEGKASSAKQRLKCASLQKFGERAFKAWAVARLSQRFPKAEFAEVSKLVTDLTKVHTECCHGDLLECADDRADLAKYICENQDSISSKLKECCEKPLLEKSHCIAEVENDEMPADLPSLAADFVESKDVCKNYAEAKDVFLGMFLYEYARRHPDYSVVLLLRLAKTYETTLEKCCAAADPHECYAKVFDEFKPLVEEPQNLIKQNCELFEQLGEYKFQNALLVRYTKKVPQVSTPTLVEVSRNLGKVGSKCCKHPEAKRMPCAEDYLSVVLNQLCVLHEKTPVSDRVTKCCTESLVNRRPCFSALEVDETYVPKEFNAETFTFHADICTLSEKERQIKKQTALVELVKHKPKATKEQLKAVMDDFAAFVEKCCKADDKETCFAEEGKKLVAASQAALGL

Binding / Kb × 10^3 [dm^3.mol^-1]	Structure (SMILES)
1.66 × 10^3 dm^3·mol^-1	Cc1c2c(c(C)n1-c1ccccc1)C(=O)N(CN1CCN(S(C)(=O)=O)CC1)C2=O [7l]
9.12 × 10^3 dm^3·mol^-1	Cc1c2c(c(C)n1-c1ccccc1)C(=O)N(CN1CCN(c3ccccc3)CC1)C2=O [7a]
